What all share (assay): Bliss interaction score (quartile over a dose matrix) (fitness difference); higher = more antagonism (negative = synergy)
The test system of one assay is S. aureus Newman. In a few lines: (§1)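 Combination data were used to infer fitness under each single drug. Fitness is the OD595 at entry into stationary phase divided by the robust mean of the plate's no-drug wells, with a cap of 1. The Bliss score is the observed minus the expected product fitness, summarised by quartiles over technical, biological and donor/recipient replicates.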

A further assay relates to S. pneumoniae D39V. An outline of the steps: as §1
The test system of the next assay is S. aureus DSM 20231. An outline of the steps: as §1
The subject of a further assay is B. subtilis 168. In a few lines: as §1
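Note: first quartile when negative (synergy) and third quartile when positive (antagonism).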

For `CC1(C)S[C@@H]2[C@H](NC(=O)[C@H](N)c3ccc(O)cc3)C(=O)N2[C@H]1C(=O)O` [Amoxicillin] + CO[C@@H]1[C@@H](OC(N)=O)[C@@H](O)[C@H](Oc2ccc3c(O)c(NC(=O)c4ccc(O)c(CC=C(C)C)c4)c(=O)oc3c2C)OC1(C)C [Novobiocin], the Bliss interaction score was -0.0655 in the assay on S. aureus Newman, 0.125 in the assay on S. pneumoniae D39V, 0.0568 in the assay on S. aureus DSM 20231 and 0.0931 in the assay on B. subtilis 168.

For the molecule `CC1(C)S[C@@H]2[C@H](NC(=O)[C@H](N)c3ccc(O)cc3)C(=O)N2[C@H]1C(=O)O` [Amoxicillin] + CO[C@@]12[C@H](COC(N)=O)C3=C(C(=O)C(C)=C(N)C3=O)N1C[C@@H]1N[C@@H]12 [MitomycinC], the Bliss interaction score in the assay with S. aureus Newman was 0.0558; with S. pneumoniae D39V, 0.0839; in the assay on S. aureus DSM 20231 it was -0.0743; in the assay with B. subtilis 168, 0.0389.

For the molecule `CC1(C)S[C@@H]2[C@H](NC(=O)[C@H](N)c3ccc(O)cc3)C(=O)N2[C@H]1C(=O)O` [Amoxicillin] + N[C@@H]1CONC1=O [CycloserineD], the Bliss interaction score with S. aureus Newman was 0.035; in the assay with S. pneumoniae D39V, -0.108; in the assay with S. aureus DSM 20231, -0.0593; with B. subtilis 168, 0.187.

Turning to `CC1(C)S[C@@H]2[C@H](NC(=O)[C@H](N)c3ccc(O)cc3)C(=O)N2[C@H]1C(=O)O` [Amoxicillin] + O=C(O)[C@H]1/C(=C/CO)O[C@@H]2CC(=O)N21 [Clavulanic], the Bliss interaction score is -0.117 in the assay on S. aureus Newman, -0.0705 in the assay on S. pneumoniae D39V, -0.114 in the assay on S. aureus DSM 20231 and -0.152 in the assay on B. subtilis 168.

Take `CC1(C)S[C@@H]2[C@H](NC(=O)[C@H](N)c3ccc(O)cc3)C(=O)N2[C@H]1C(=O)O` [Amoxicillin] + Oc1cc(Cl)ccc1Oc1ccc(Cl)cc1Cl [Triclosan]: the Bliss interaction score is 0.0346 in the assay with S. aureus Newman, -0.0734 with S. pneumoniae D39V, 0.028 in the assay with S. aureus DSM 20231 and -0.0443 in the assay with B. subtilis 168.

For the molecule `CO/N=C(\C(=O)N[C@@H]1C(=O)N2C(C(=O)[O-])=C(C[N+]3(C)CCCC3)CS[C@H]12)c1csc(N)n1` [Cefepime] + CC1(C)S[C@@H]2[C@H](NC(=O)Cc3ccccc3)C(=O)N2[C@H]1C(=O)O [PenicillinG], the Bliss interaction score was -0.0463 in the assay with S. aureus Newman, -0.0873 in the assay with S. pneumoniae D39V, 0.0733 with S. aureus DSM 20231 and -0.0668 with B. subtilis 168.

In the case of `CO/N=C(\C(=O)N[C@@H]1C(=O)N2C(C(=O)[O-])=C(C[N+]3(C)CCCC3)CS[C@H]12)c1csc(N)n1` [Cefepime] + CC(=O)O[C@H]1C[C@@]2(C)[C@@H](C[C@@H](O)[C@H]3[C@@]4(C)CC[C@@H](O)[C@@H](C)[C@@H]4CC[C@@]32C)/C1=C(\CCC=C(C)C)C(=O)O [Fusidic acid], the Bliss interaction score was 0.0735 with S. aureus Newman, 0.174 in the assay with S. pneumoniae D39V, 0.062 with S. aureus DSM 20231 and 0.0845 with B. subtilis 168.

Regarding `CO/N=C(\C(=O)N[C@@H]1C(=O)N2C(C(=O)[O-])=C(C[N+]3(C)CCCC3)CS[C@H]12)c1csc(N)n1` [Cefepime] + CCC[C@@H]1C[C@@H](C(=O)N[C@@H]([C@H]2O[C@H](SC)[C@H](O)[C@@H](O)[C@H]2O)[C@H](C)Cl)N(C)C1 [Clindamycin], the Bliss interaction score turned out to be 0.0778 in the assay with S. aureus Newman, 0.162 in the assay on S. pneumoniae D39V, 0.0679 in the assay with S. aureus DSM 20231 and 0.0651 in the assay on B. subtilis 168.

As to `CO/N=C(\C(=O)N[C@@H]1C(=O)N2C(C(=O)[O-])=C(C[N+]3(C)CCCC3)CS[C@H]12)c1csc(N)n1` [Cefepime] + CC[C@H]1OC(=O)[C@H](C)C(=O)[C@H](C)[C@@H](O[C@@H]2O[C@H](C)C[C@H](N(C)C)[C@H]2O)[C@](C)(OC)C[C@@H](C)C(=O)[C@H](C)[C@H]2N(CCCCn3cnc(-c4cccnc4)c3)C(=O)O[C@]12C [Telithromycin], the Bliss interaction score is 0.0252 with S. aureus Newman, -0.0487 with S. pneumoniae D39V, 0.0789 in the assay with S. aureus DSM 20231 and 0.122 in the assay with B. subtilis 168.

Consider `CO/N=C(\C(=O)N[C@@H]1C(=O)N2C(C(=O)[O-])=C(C[N+]3(C)CCCC3)CS[C@H]12)c1csc(N)n1` [Cefepime] + CC[C@H]1OC(=O)[C@H](C)[C@@H](O[C@H]2C[C@@](C)(OC)[C@@H](O)[C@H](C)O2)[C@H](C)[C@@H](O[C@@H]2O[C@H](C)C[C@H](N(C)C)[C@H]2O)[C@](C)(O)C[C@@H](C)C(=O)[C@H](C)[C@@H](O)[C@]1(C)O [Erythromycin], for which the Bliss interaction score with S. aureus Newman turned out to be 0.0704; in the assay with S. pneumoniae D39V it was 0.0938; in the assay with S. aureus DSM 20231, 0.0701; in the assay with B. subtilis 168, 0.0672.

Consider `CO/N=C(\C(=O)N[C@@H]1C(=O)N2C(C(=O)[O-])=C(C[N+]3(C)CCCC3)CS[C@H]12)c1csc(N)n1` [Cefepime] + CC[C@H]1OC(=O)[C@H](C)[C@@H](O[C@H]2C[C@@](C)(OC)[C@@H](O)[C@H](C)O2)[C@H](C)[C@@H](O[C@@H]2O[C@H](C)C[C@H](N(C)C)[C@H]2O)[C@](C)(OC)C[C@@H](C)C(=O)[C@H](C)[C@@H](O)[C@]1(C)O [Clarithromycin], for which the Bliss interaction score in the assay on S. aureus Newman turned out to be 0.0613; in the assay on S. pneumoniae D39V, 0.07; in the assay on S. aureus DSM 20231, 0.128; in the assay on B. subtilis 168, 0.0395.

On to `CO/N=C(\C(=O)N[C@@H]1C(=O)N2C(C(=O)[O-])=C(C[N+]3(C)CCCC3)CS[C@H]12)c1csc(N)n1` [Cefepime] + CN(C)[C@@H]1C(O)=C(C(N)=O)C(=O)[C@@]2(O)C(O)=C3C(=O)c4c(O)ccc(Cl)c4[C@@](C)(O)[C@H]3C[C@@H]12 [Clortetracycline], for which the Bliss interaction score in the assay on S. aureus Newman was determined as 0.105; in the assay with S. pneumoniae D39V, 0.163; with S. aureus DSM 20231 it was 0.0809; with B. subtilis 168, 0.0651.

As to `CO/N=C(\C(=O)N[C@@H]1C(=O)N2C(C(=O)[O-])=C(C[N+]3(C)CCCC3)CS[C@H]12)c1csc(N)n1` [Cefepime] + CN[C@H](CC(C)C)C(=O)N[C@H]1C(=O)N[C@@H](CC(N)=O)C(=O)N[C@H]2C(=O)N[C@H]3C(=O)N[C@H](C(=O)N[C@H](C(=O)O)c4cc(O)cc(O)c4-c4cc3ccc4O)[C@H](O[C@H]3C[C@](C)(N)[C@@H](O)[C@H](C)O3)c3ccc(c(Cl)c3)Oc3cc2cc(c3O[C@@H]2O[C@H](CO)[C@@H](O)[C@H](O)[C@H]2O[C@H]2C[C@](C)(NCc3ccc(-c4ccc(Cl)cc4)cc3)[C@@H](O)[C@H](C)O2)Oc2ccc(cc2Cl)[C@H]1O [Oritavancin], the Bliss interaction score in the assay with S. aureus Newman is 0.0749; with S. pneumoniae D39V, -0.0811; with S. aureus DSM 20231 it was 0.0977; in the assay on B. subtilis 168, 0.0342.

Consider `CO/N=C(\C(=O)N[C@@H]1C(=O)N2C(C(=O)[O-])=C(C[N+]3(C)CCCC3)CS[C@H]12)c1csc(N)n1` [Cefepime] + CO/N=C(\C(=O)N[C@@H]1C(=O)N2C(C(=O)O)=C(COC(C)=O)CS[C@H]12)c1csc(N)n1 [Cefotaxime], for which the Bliss interaction score in the assay on S. aureus Newman amounted to 0.0764; in the assay with S. pneumoniae D39V, 0.0698; in the assay with S. aureus DSM 20231, 0.0767; with B. subtilis 168, 0.0354.

In the case of `CO/N=C(\C(=O)N[C@@H]1C(=O)N2C(C(=O)[O-])=C(C[N+]3(C)CCCC3)CS[C@H]12)c1csc(N)n1` [Cefepime] + CO/N=C(\C(=O)N[C@@H]1C(=O)N2C(C(=O)O)=C(COC(N)=O)CS[C@H]12)c1ccco1 [Cefuroxime], the Bliss interaction score is 0.0741 with S. aureus Newman, -0.0435 with S. pneumoniae D39V, 0.0866 in the assay with S. aureus DSM 20231 and -0.0417 in the assay with B. subtilis 168.

Take `CO/N=C(\C(=O)N[C@@H]1C(=O)N2C(C(=O)[O-])=C(C[N+]3(C)CCCC3)CS[C@H]12)c1csc(N)n1` [Cefepime] + CO[C@@H]1[C@@H](OC(N)=O)[C@@H](O)[C@H](Oc2ccc3c(O)c(NC(=O)c4ccc(O)c(CC=C(C)C)c4)c(=O)oc3c2C)OC1(C)C [Novobiocin]: the Bliss interaction score was 0.0516 with S. aureus Newman, -0.098 in the assay with S. pneumoniae D39V, 0.0654 with S. aureus DSM 20231 and -0.104 in the assay on B. subtilis 168.

Take `CO/N=C(\C(=O)N[C@@H]1C(=O)N2C(C(=O)[O-])=C(C[N+]3(C)CCCC3)CS[C@H]12)c1csc(N)n1` [Cefepime] + CO[C@@]12[C@H](COC(N)=O)C3=C(C(=O)C(C)=C(N)C3=O)N1C[C@@H]1N[C@@H]12 [MitomycinC]: the Bliss interaction score in the assay with S. aureus Newman was 0.0543; with S. pneumoniae D39V it was 0.125; with S. aureus DSM 20231, -0.0534; in the assay with B. subtilis 168, -0.153.

On to `CO/N=C(\C(=O)N[C@@H]1C(=O)N2C(C(=O)[O-])=C(C[N+]3(C)CCCC3)CS[C@H]12)c1csc(N)n1` [Cefepime] + COc1cccc2c1C(=O)c1c(O)c3c(c(O)c1C2=O)C[C@@](O)(C(=O)CO)C[C@@H]3O[C@H]1C[C@H](N)[C@H](O)[C@H](C)O1 [Doxorubicin], for which the Bliss interaction score in the assay with S. aureus Newman was -0.0429; in the assay on S. pneumoniae D39V, 0.0847; in the assay with S. aureus DSM 20231 it was -0.1; with B. subtilis 168, -0.239.

As to `CO/N=C(\C(=O)N[C@@H]1C(=O)N2C(C(=O)[O-])=C(C[N+]3(C)CCCC3)CS[C@H]12)c1csc(N)n1` [Cefepime] + C[C@H]1c2cccc(O)c2C(=O)C2=C(O)[C@]3(O)C(=O)C(C(N)=O)=C(O)[C@@H](N(C)C)[C@@H]3[C@@H](O)[C@@H]21 [Doxycycline], the Bliss interaction score with S. aureus Newman was found to be 0.0446; in the assay with S. pneumoniae D39V, 0.203; with S. aureus DSM 20231 it was 0.119; with B. subtilis 168, 0.0669.

Take `CO/N=C(\C(=O)N[C@@H]1C(=O)N2C(C(=O)[O-])=C(C[N+]3(C)CCCC3)CS[C@H]12)c1csc(N)n1` [Cefepime] + N[C@@H]1CONC1=O [CycloserineD]: the Bliss interaction score in the assay with S. aureus Newman is -0.0561; with S. pneumoniae D39V, 0.0926; with S. aureus DSM 20231, 0.0932; in the assay on B. subtilis 168 it was 0.0718.

As for `CO/N=C(\C(=O)N[C@@H]1C(=O)N2C(C(=O)[O-])=C(C[N+]3(C)CCCC3)CS[C@H]12)c1csc(N)n1` [Cefepime] + O=C(N[C@H](CO)[C@H](O)c1ccc([N+](=O)[O-])cc1)C(Cl)Cl [Chloramphenicol], the Bliss interaction score in the assay on S. aureus Newman came to 0.0591; with S. pneumoniae D39V, 0.149; in the assay with S. aureus DSM 20231, 0.158; with B. subtilis 168, 0.109.

As to `CO/N=C(\C(=O)N[C@@H]1C(=O)N2C(C(=O)[O-])=C(C[N+]3(C)CCCC3)CS[C@H]12)c1csc(N)n1` [Cefepime] + O=C(O)[C@H]1/C(=C/CO)O[C@@H]2CC(=O)N21 [Clavulanic], the Bliss interaction score in the assay on S. aureus Newman is 0.0605; in the assay with S. pneumoniae D39V, -0.0597; in the assay on S. aureus DSM 20231, 0.0843; in the assay on B. subtilis 168 it was -0.0808.

Consider `CO/N=C(\C(=O)N[C@@H]1C(=O)N2C(C(=O)[O-])=C(C[N+]3(C)CCCC3)CS[C@H]12)c1csc(N)n1` [Cefepime] + O=C(O)c1cn(C2CC2)c2cc(N3CCNCC3)c(F)cc2c1=O [Ciprofloxacin], for which the Bliss interaction score in the assay on S. aureus Newman was 0.0601; in the assay with S. pneumoniae D39V, 0.147; with S. aureus DSM 20231 it was -0.0463; in the assay with B. subtilis 168, -0.193.

The values above are taken from the supplement of paper PMC10627819.
